Measurements taken from patent US20190343828A1, “CAMPTOTHECIN PEPTIDE CONJUGATES” (SEATTLE GENETICS, INC., priority 2018, published 2019).

What was measured:
[1] = tested on: multiple myeloma cells (MM.1R); assay: In vitro cytotoxicity, CellTiter-Glo 96 h, MM.1R; settings: read-out: Cytotoxic potency (IC50 class), MM.1R
Procedure: (§1) In vitro potency was assessed on multiple cancer cell lines. All cell lines were authenticated by STR profiling at IDEXX Bioresearch and cultured for no more than 2 months after resuscitation. Cells cultured in log-phase growth were seeded for 24 hours in 96-well plates containing 150 μl RPMI 1640 supplemented with 20% FBS. Serial dilutions of antibody-drug conjugates in cell culture media were prepared at 4× working concentrations, and 50 μl of each dilution was added to the 96-well plates. Following addition of test articles, cells were incubated with test articles for 4 days at 37° C. After 96 hours, growth inhibition was assessed by CellTiter-Glo® (Promega, Madison, Wis.) and luminescence was measured on a plate reader.
(§2) Cell viability was determined by CellTiter-Glo staining after 96 h exposure to ADC. […] Ag1 is an antibody targeting a ubiquitous and readily internalizable antigen on cancer cells, Ag2 is cAC10 antibody targeting CD30(+) cancer cells, Ag3 is h1F6 antibody targeting CD70(+) cancer cells, Ag4 is hMEM102 antibody targeting CD48(+) cancer cells, Ag5 is h20F3 antibody targeting NTB-A expressing cancer cells, and h00 is a non-binding control antibody.

[2] = tested on: B-lymphocyte cancer cells (SU-DHL-4); assay: In vitro cytotoxicity, CellTiter-Glo 96 h, SU-DHL-4; settings: Homo sapiens, SU-DHL-4, read-out: Cytotoxic potency as free drug, IC50, SU-DHL-4
Procedure: as §1, §2

[3] = tested on: B-lymphocyte cancer cells (U266); assay: In vitro cytotoxicity, CellTiter-Glo 96 h, U266; settings: Homo sapiens, U-266, read-out: Cytotoxic potency as free drug, IC50, U266
Procedure: as §1, §2

[4] = tested on: Burkitt's lymphoma cells (Ramos); assay: In vitro cytotoxicity, CellTiter-Glo 96 h, Ramos; settings: Homo sapiens, read-out: Cytotoxic potency as free drug, IC50, Ramos
Procedure: as §1
(§3) Cell viability was determined by CellTiter-Glo staining after 96 h exposure to ADC.

[5] = tested on: pancreatic cancer cells (BxPC3); assay: In vitro cytotoxicity, CellTiter-Glo 96 h, BxPC3; settings: Homo sapiens, BXPC-3, read-out: Cytotoxic potency (IC50 class), BxPC3
Procedure: as §1, §3

[6] = tested on: acute myeloid leukemia cells (MOLM13); assay: In vitro cytotoxicity, CellTiter-Glo 96 h, MOLM13; settings: Homo sapiens, MOLM-13, read-out: Cytotoxic potency as free drug, IC50, MOLM13
Procedure: as §1, §3

[7] = tested on: melanoma cells (SK-MEL-5); assay: In vitro cytotoxicity, CellTiter-Glo 96 h, SK-MEL-5; settings: Homo sapiens, SK-MEL-5, read-out: Cytotoxic potency as free drug, IC50, SK-MEL-5
Procedure: as §1, §2

[8] = tested on: acute promyelocytic leukemia cells (HL-60); assay: In vitro cytotoxicity, CellTiter-Glo 96 h, HL-60; settings: Homo sapiens, HL-60, read-out: Cytotoxic potency (IC50 class), HL-60
Procedure: as §1, §2

[9] = tested on: multiple drug resistant acute promyelocytic leukemia cells (HL-60/RV); assay: In vitro cytotoxicity, CellTiter-Glo 96 h, HL60/RV; settings: Homo sapiens, HL-60, read-out: Cytotoxic potency (IC50 class), HL60/RV
Procedure: as §1, §3

[10] = tested on: renal carcinoma cells (786-O); assay: In vitro cytotoxicity, CellTiter-Glo 96 h, 786-O; settings: Homo sapiens, 786-0, read-out: Cytotoxic potency (IC50 class), 786-O
Procedure: as §1, §3

[11] = tested on: Hodgkin's lymphoma cells (L540cy); assay: In vitro cytotoxicity, CellTiter-Glo 96 h, L540cy; settings: read-out: Cytotoxic potency (IC50 class), L540cy
Procedure: as §1, §3

| SMILES | IC50 [1] | IC50 [2] | IC50 [3] | IC50 [4] | IC50 [5] | IC50 [6] | IC50 [7] | IC50 [8] | IC50 [9] | IC50 [10] | IC50 [11] |
| --- | --- | --- | --- | --- | --- | --- | --- | --- | --- | --- | --- |
| CC[C@@]1(O)C(=O)OCc2c1cc1n(c2=O)Cc2c-1nc1cc3c(cc1c2CN(C)CCNC)OCO3 [Compound 5x] | 10 to 100 nM | 10 to 100 nM | 10 to 100 nM | 10 to 100 nM | 100 to 1000 nM | 10 to 100 nM | 10 to 100 nM | 100 to 1000 nM | 100 to 1000 nM | 10 to 100 nM | 10 to 100 nM |
| CC[C@@]1(O)C(=O)OCc2c1cc1n(c2=O)Cc2c-1nc1cc3c(cc1c2CNCCOCCOCCN)OCO3 [Compound 5y] | 1 to 10 nM | 1 to 10 nM | 1 to 10 nM | 0.1 to 1 nM | 1 to 10 nM | 1 to 10 nM | 1 to 10 nM | 10 to 100 nM | 10 to 100 nM | 1 to 10 nM | 1 to 10 nM |
| CC[C@@]1(O)C(=O)OCc2c1cc1n(c2=O)Cc2c-1nc1cc3c(cc1c2CNCCc1ccccc1)OCO3 [Compound 5z] | 1 to 10 nM | 1 to 10 nM | 10 to 100 nM | 1 to 10 nM | 10 to 100 nM | 10 to 100 nM | 10 to 100 nM | 10 to 100 nM | 10 to 100 nM | 1 to 10 nM | 1 to 10 nM |
| CCCc1c2c(nc3cc4c(cc13)OCO4)-c1cc3c(c(=O)n1C2)COC(=O)[C@]3(O)CC [Compound 6a] | 1 to 10 nM | 0.1 to 1 nM | 1 to 10 nM | 0.1 to 1 nM | 1 to 10 nM | 1 to 10 nM | 1 to 10 nM | 1 to 10 nM | 1 to 10 nM | 1 to 10 nM | 0.1 to 1 nM |
| CC[C@@]1(O)C(=O)OCc2c1cc1n(c2=O)Cc2c-1nc1cc3c(cc1c2-c1ccccc1)OCO3 [Compound 6d] | 1 to 10 nM | 0.1 to 1 nM | 1 to 10 nM | 0.1 to 1 nM | 1 to 10 nM | 1 to 10 nM | 1 to 10 nM | 1 to 10 nM | 1 to 10 nM | 1 to 10 nM | 1 to 10 nM |
| CCc1c2c(nc3cc4c(cc13)OCO4)-c1cc3c(c(=O)n1C2)COC(=O)[C@]3(O)CC [Compound 6e] | 0.1 to 1 nM | 0.1 to 1 nM | 1 to 10 nM | 0.1 to 1 nM | 1 to 10 nM | 1 to 10 nM | 1 to 10 nM | 1 to 10 nM | 1 to 10 nM | 0.1 to 1 nM | 0.1 to 1 nM |
| CC[C@@]1(O)C(=O)OCc2c1cc1n(c2=O)Cc2c-1nc1cc3c(cc1c2CC(C)C)OCO3 [Compound 6f] | 1 to 10 nM | 1 to 10 nM | 1 to 10 nM | 1 to 10 nM | 1 to 10 nM | 1 to 10 nM | 1 to 10 nM | 10 to 100 nM | 1 to 10 nM | 1 to 10 nM | 1 to 10 nM |
| CCC(CC)Cc1c2c(nc3cc4c(cc13)OCO4)-c1cc3c(c(=O)n1C2)COC(=O)[C@]3(O)CC [Compound 6g] | 1 to 10 nM | 1 to 10 nM | 1 to 10 nM | 0.1 to 1 nM | 1 to 10 nM | 1 to 10 nM | 1 to 10 nM | 10 to 100 nM | 1 to 10 nM | 1 to 10 nM | 1 to 10 nM |
| CCCCCc1c2c(nc3cc4c(cc13)OCO4)-c1cc3c(c(=O)n1C2)COC(=O)[C@]3(O)CC [Compound 6h] | 1 to 10 nM | 0.1 to 1 nM | 1 to 10 nM | 0.1 to 1 nM | 1 to 10 nM | 10 to 100 nM | 1 to 10 nM | 10 to 100 nM | 10 to 100 nM | 0.1 to 1 nM | 1 to 10 nM |
| CC[C@@]1(O)C(=O)OCc2c1cc1n(c2=O)Cc2c-1nc1cc3c(cc1c2C1CCCC1)OCO3 [Compound 6i] | 1 to 10 nM | 0.1 to 1 nM | 1 to 10 nM | 0.1 to 1 nM | 1 to 10 nM | 1 to 10 nM | 1 to 10 nM | 10 to 100 nM | 1 to 10 nM | 1 to 10 nM | 1 to 10 nM |
| CC[C@@]1(O)C(=O)OCc2c1cc1n(c2=O)Cc2c-1nc1cc3c(cc1c2C1CCCCCC1)OCO3 [Compound 6j] | 1 to 10 nM | 1 to 10 nM | 1 to 10 nM | 0.1 to 1 nM | 1 to 10 nM | 1 to 10 nM | 1 to 10 nM | 10 to 100 nM | 1 to 10 nM | 1 to 10 nM | 1 to 10 nM |
| CCCCCCc1c2c(nc3cc4c(cc13)OCO4)-c1cc3c(c(=O)n1C2)COC(=O)[C@]3(O)CC [Compound 6k] | 1 to 10 nM | 1 to 10 nM | 1 to 10 nM | 0.1 to 1 nM | 1 to 10 nM | 10 to 100 nM | 1 to 10 nM | 100 to 1000 nM | 10 to 100 nM | 1 to 10 nM | 1 to 10 nM |
| CC[C@@]1(O)C(=O)OCc2c1cc1n(c2=O)Cc2c-1nc1cc3c(cc1c2C(C)(C)C)OCO3 [Compound 6l] | 1 to 10 nM | 1 to 10 nM | 1 to 10 nM | 0.1 to 1 nM | 1 to 10 nM | 1 to 10 nM | 1 to 10 nM | 1 to 10 nM | 1 to 10 nM | 1 to 10 nM | 1 to 10 nM |
| CC[C@@]1(O)C(=O)OCc2c1cc1n(c2=O)Cc2c-1nc1cc3c(cc1c2C1CC1)OCO3 [Compound 6m] | 0.1 to 1 nM | 0.1 to 1 nM | 1 to 10 nM | 0.1 to 1 nM | 1 to 10 nM | 1 to 10 nM | 1 to 10 nM | 10 to 100 nM | 1 to 10 nM | 0.1 to 1 nM | 0.1 to 1 nM |
| CC[C@@]1(O)C(=O)OCc2c1cc1n(c2=O)Cc2c-1nc1cc3c(cc1c2CC(C)(C)C)OCO3 [Compound 6n] | 1 to 10 nM | 1 to 10 nM | 1 to 10 nM | 1 to 10 nM | 1 to 10 nM | 1 to 10 nM | 1 to 10 nM | 10 to 100 nM | 1 to 10 nM | 1 to 10 nM | 1 to 10 nM |
| CC[C@@]1(O)C(=O)OCc2c1cc1n(c2=O)Cc2cc3cc4c(cc3nc2-1)OCO4 [Compound 6o] | 1 to 10 nM | 1 to 10 nM | 1 to 10 nM | 0.1 to 1 nM | 1 to 10 nM | 10 to 100 nM | 1 to 10 nM | 100 to 1000 nM | 10 to 100 nM | 1 to 10 nM | 1 to 10 nM |
| CC[C@@]1(O)C(=O)OCc2c1cc1n(c2=O)Cc2c-1nc1cc3c(cc1c2C)OCO3 [Compound 6p] | 0.1 to 1 nM | 0.1 to 1 nM | 0.1 to 1 nM | 0.1 to 1 nM | 0.1 to 1 nM | 1 to 10 nM | 0.1 to 1 nM | 10 to 100 nM | 1 to 10 nM | 0.1 to 1 nM | 0.1 to 1 nM |
| CC[C@@]1(O)C(=O)OCc2c1cc1n(c2=O)Cc2c-1nc1cc(F)c(C)c3c1c2[C@@H](NC(=O)CO)CC3 [Compound 8a] | 1 to 10 nM | 1 to 10 nM | 10 to 100 nM | 1 to 10 nM | 10 to 100 nM | 10 to 100 nM | 10 to 100 nM | 100 to 1000 nM | 10 to 100 nM | 1 to 10 nM | 1 to 10 nM |
| CC[C@@]1(O)C(=O)OCc2c1cc1n(c2=O)Cc2c-1nc1cc(F)c(C)c3c1c2[C@@H](N)CC3 [Compound 8b] | 1 to 10 nM | 1 to 10 nM | 1 to 10 nM | 0.1 to 1 nM | 1 to 10 nM | 10 to 100 nM | 1 to 10 nM | 10 to 100 nM | 10 to 100 nM | 1 to 10 nM | 1 to 10 nM |
| CC[C@@]1(O)C(=O)OCc2c1cc1n(c2=O)Cc2c-1nc1cc3c(cc1c2CO)OCO3 [Compound 8c] | 1 to 10 nM | 0.1 to 1 nM | 1 to 10 nM | 0.1 to 1 nM | 1 to 10 nM | 1 to 10 nM | 1 to 10 nM | 10 to 100 nM | 1 to 10 nM | 1 to 10 nM | 0.1 to 1 nM |
| CCc1c2c(nc3ccc(O)cc13)-c1cc3c(c(=O)n1C2)COC(=O)[C@]3(O)CC [Compound 8d] | 1 to 10 nM | 1 to 10 nM | 1 to 10 nM | 10 to 100 nM | 1 to 10 nM | 1 to 10 nM | 1 to 10 nM | 1 to 10 nM | 10 to 100 nM | 1 to 10 nM | 10 to 100 nM |
